Patent US20220266206A1, “FORMULATION AND PROCESS FOR MANUFACTURING A HEAT STABLE OIL-IN-WATER EMULSION FOR CANNABIS BEVERAGES IN PLASTIC BOTTLES” (Gaia Botanicals LLC DBA Bluebird Botanicals, priority 2021, published 2022)

Experiment: Solubility of CBD in MCT oil (fractionated coconut oil)
Assay type: physicochemical
Details: carrier oil: fractionated coconut oil (MCT oil)
Excerpt: In first mixing step 100, cannabinoid extract may be advantageously dissolved into a carrier oil to create oil phase 150. An aspect of the current invention is the use of a carrier oil, which overcomes the issues of aqueous solubility for the cannabinoid extract, particularly CBD. In its pure form, CBD is a non-polar crystalline solid which in the absence of an oil or alcohol will not readily dissolve to form a stable emulsion with the gum blend. By dissolving the CBD in a carrier oil in first mixing step 100, the CBD will be readily dissolved into the oil which increases its suitability for emulsion formation. In an embodiment of the invention, CBD is added to fractionated coconut oil (MCT oil) in first mixing step 100 using an immersion blender to thoroughly mix, then the mixture is transferred to a magnetic stir plate to allow for slow gentle mixing of the oil until the CBD is completely dissolved. First mixing step 100 can comprise immersion blending at a high shear rate followed by a slower mixing utilizing a stir bar. Heat may be used to speed the process but may result on oxidation of the CBD as well as result in off-flavors. MCT oil offers several advantages over other possible carrier oils as it is both colorless and nearly flavorless, and it readily dissolves CBD at concentrations as high as 30%. […]

**Q.** For `C=C(C)[C@@H]1CCC(C)=C[C@H]1c1c(O)cc(CCCCC)cc1O` [CBD, cannabidiol], which “concentration of CBD readily dissolved in MCT oil” value is on record?
**A.** ≤ 30%
